Experimental data: patent US20190002429A1, “Derivatives of Xanthone Compounds” (Agency for Science, Technology and Research, priority 2011, published 2019)
≈ marks a conversion by molar mass, not a printed value. Read-outs that look alike come from different tables or passages of the source.

Legend:
[1] = tested on: red blood cell
[2] = tested on: S. aureus; test: MIC99 against S. aureus (Table 2-1); format: cell-based, Staphylococcus aureus
[3] = tested on: Clinical Staphylococcus aureus DM4001; test: Cytoplasmic membrane depolarization (DiSC3 dye); format: cell-based; conditions: DiSC3 fluorescence; AM-016 at 12.5 ug/mL
Description: Membrane potential-sensitive dye 3,3′-dipropylthiadicarbocyanine iodide (DiSC3) was used to determine the cytoplasmic membrane depolarization activity of AM-016. An overnight culture of clinical Staphylococcus aureus DM4001(source: Eye) was allowed to grow in Muller-Hinton broth (MHB) to OD620=0.3-0.4. Then, the bacteria was collected by centrifugation at 2800 r.p.m at 37° C. for 30 minutes and washed with 5 mM HEPES buffer at pH7. […] The cell suspension was then incubated with 0.1M KCl and 0.4 μM DiSC3 at 37° C. for 30 minutes. Dye uptake was monitored by fluorospectrometry (Photon Technology International (PTI) Photomultiplier Detection Systems, model 814) in a stirred cuvette until the fluorescence signal was stable. The desired concentration of AM-016 was added and the fluorescence was monitored at an excitation wavelength of 622 nm and at an emission wavelength of 670 nm. A blank with dye in the absence of bacteria with same concentration of AM-016 was used as a control.

[4] = tested on: Gram-positive bacteria; test: Antimicrobial activity against Gram-positive bacteria (statement); format: cell-based; conditions: at 50 ug/ml
[5] = tested on: S. aureus DM4001; test: SYTOX green membrane permeabilization assay, S. aureus; conditions: 10 μM; for SYTOX green staining of bacteria (fluorescence microscopy): FIG. 14; for Membrane permeabilization (SYTOX green fluorescence emission): fluorescence spectroscopy
Description: S. aureus DM4001 was harvested at early exponential phase and suspended in 40 mM PBS until OD620 of 0.09 was obtained. Then, the bacteria suspension was incubated with 3 μM of SYTOX Green in dark. The mixture was monitored in a stirring cuvette at an excitation wavelength of 504 nm and at an emission wavelength of 523 nm until the fluorescence was stable. Then, 10 μM of AM compounds were added and the changed of fluorescence emissions were monitored.

[6] = tested on: MRSA DM21455; test: MIC against MRSA DM21455; format: cell-based, Staphylococcus aureus; conditions: for Minimum inhibition concentration (MIC): MRSA DM21455, Source: Eye; for MIC: Staphylococcus aureus
[7] = tested on: Staphylococcus aureus ATCC29213; test: MIC against S. aureus ATCC29213; format: cell-based; conditions: for MIC: Table 5
[8] = tested on: MRSA; test: MIC99 against MRSA (Table 2-1); format: cell-based, Staphylococcus aureus
[9] = tested on: Pseudomonas aeruginosa ATCC27853; test: MIC against Pseudomonas aeruginosa ATCC27853; format: cell-based
[10] = tested on: MRSA DM09808R; test: MIC against MRSA DM09808R; format: cell-based, Staphylococcus aureus; conditions: for MIC: Staphylococcus aureus
[11] = tested on: MRSA DM21595; test: MIC against MRSA DM21595; format: cell-based, Staphylococcus aureus; conditions: Staphylococcus aureus
[12] = tested on: MRSA DR42412; test: MIC against MRSA DR42412; format: cell-based, Staphylococcus aureus; conditions: Staphylococcus aureus
[13] = tested on: Staphylococcus aureus ATCC 700699 (VISA); test: MIC against S. aureus ATCC 700699 (MRSA-700699, VISA); format: cell-based; conditions: for MIC: Staphylococcus aureus
[14] = tested on: red blood cell; test: Hemolytic activity / in vitro toxicity (HC50); conditions: for HC50: Table 2-1, in vitro toxicity; for Hemolytic concentration, HC50: Table 10
[15] = tested on: Mycobacterium tuberculosis
[16] = tested on: Enterococcus faecalis 11: DS6527 (VRE 208/11); test: MIC against Enterococcus faecalis DS6527 (VRE 208/11); format: cell-based; conditions: E. faecalis DS6527 (VRE 208/11); no unit in table (Example 10 MICs in μg/ml)
[17] = tested on: Enterococcus faecalis 11: DU9345 VRE; test: MIC against Enterococcus faecalis DU9345 VRE; format: cell-based; conditions: E. faecalis DU9345 VRE; no unit in table (Example 10 MICs in μg/ml)
[18] = tested on: Enterococcus faecalis ATCC 51299 VRE; test: MIC against Enterococcus faecalis ATCC 51299 VRE; format: cell-based; conditions: E. faecalis ATCC 51299 VRE; no unit in table (Example 10 MICs in μg/ml)
[19] = tested on: Staphylococcus aureus 10: DB6506 (MRSA04/10) (VISA); test: MIC against S. aureus DB6506 (VISA); format: cell-based; conditions: no unit in table (Example 10 MICs in μg/ml)
[20] = tested on: MRSA DM21455; test: Drug resistance test, 20 serial passages; format: cell-based, Staphylococcus aureus; conditions: MRSA DM21455, FIG. 7
[21] = tested on: Bacillus cereus ATCC11778; test: MIC against Bacillus cereus ATCC11778; format: cell-based; conditions: for MIC: Table 5
[22] = tested on: Clinical Staphylococcus aureus DM4001; test: MIC against clinical S. aureus DM4001; format: cell-based; parameters: MIC: unit not given here; conditions: Clinical S. aureus DM4001, Source: Eye; for MIC: Table 5
[23] = tested on: Mycobacterium tuberculosis; test: microbe, parasite or virus in culture; conditions: read-out: MIC100
[24] = format: physicochemical; conditions: pH 7
Description: The solvent was added stepwise until the compound was dissolved completely. Then, the stock solution was diluted to series of diluents and the absorbance of each diluent was determined.

[25] = tested on: Klebsiella pneumoniae ATCC10031; test: MIC against Klebsiella pneumoniae ATCC10031; format: cell-based
[26] = pH value in different media; format: physicochemical
Source text: The pH values were obtained using an electronic pH meter.

Structure (SMILES): COc1c(OCCCCBr)cc2oc3cc(OCCCCBr)c(CC=C(C)C)c(O)c3c(=O)c2c1CC=C(C)C [AM-005]
- HC50 [1]: >200 µg/mL
- MIC99 S. aureus [2]: >200 µg/mL
- Cytoplasmic membrane depolarization [3]: does not depolarize the membrane
- Activity against Gram-positive bacteria [4]: did not show activity
- SYTOX green staining of bacteria (fluorescence microscopy) [5]: no significant staining
- Membrane permeabilization (SYTOX green fluorescence emission) [5]: not able to trigger the membrane permeabilization
- Minimum inhibition concentration (MIC) [6]: >50 µg/mL
- Minimum inhibition concentration (MIC) [7]: >50 µg/mL
- MIC99 MRSA [8]: >200 µg/mL
- Minimum inhibition concentration (MIC) [9]: >50 µg/mL
- Minimum inhibition concentration (MIC) ([10]; MRSA DM09808R, Source: Eye): >50 µg/mL

Structure (SMILES): CCN(CC)CCCCCCCCCCOc1cc2oc3cc(OCCCCCCCCCCN(CC)CC)c(OC)c(CC=C(C)C)c3c(=O)c2c(O)c1CC=C(C)C [AM-044]
- SYTOX green staining of bacteria (fluorescence microscopy) [5]: no significant staining
- Membrane permeabilization (SYTOX green fluorescence emission) [5]: not able to trigger the membrane permeabilization

Structure (SMILES): CCCCCCCCCC(=O)N[C@@H](Cc1c[nH]c2ccccc12)C(=O)N[C@H](CC(N)=O)C(=O)N[C@@H](CC(=O)O)C(=O)N[C@@H]1C(=O)NCC(=O)N[C@@H](CCCN)C(=O)N[C@@H](CC(=O)O)C(=O)N[C@H](C)C(=O)N[C@@H](CC(=O)O)C(=O)NCC(=O)N[C@H](CO)C(=O)N[C@@H]([C@H](C)CC(=O)O)C(=O)N[C@@H](CC(=O)c2ccccc2N)C(=O)O[C@@H]1C [Daptomycin, reference compound]
- MIC ([11]; MRSA-21595 (Wound), Example 10, Mueller Hinton broth dilution, read-out: MIC): 0.395 µg/mL (≈ 0.244 µM)
- MIC ([12]; MRSA-42412 (Sputum), Example 10, Mueller Hinton broth dilution, read-out: MIC): 0.195 µg/mL (≈ 0.12 µM)
- MIC ([6]; MRSA-21455 (Eye), Example 10, Mueller Hinton broth dilution, read-out: MIC): 0.78 µg/mL (≈ 0.481 µM)
- MIC ([13]; MRSA-700699, Example 10, Mueller Hinton broth dilution, read-out: MIC): 0.78 µg/mL (≈ 0.481 µM)
- MIC ([10]; MRSA-09808R (Eye), Example 10, Mueller Hinton broth dilution, read-out: MIC): 0.195 µg/mL (≈ 0.12 µM)

Structure (SMILES): CCN(CC)CCCCCCCCCCCCOc1cc2oc3cc(OCCCCCCCCCCCCN(CC)CC)c(OC)c(CC=C(C)C)c3c(=O)c2c(O)c1CC=C(C)C [AM-045]
- SYTOX green staining of bacteria (fluorescence microscopy) [5]: no significant staining
- Membrane permeabilization (SYTOX green fluorescence emission) [5]: not able to trigger the membrane permeabilization

Structure (SMILES): COc1c(OCCCCN2CCOCC2)cc2oc3cc(OCCCCN4CCOCC4)c(CC=C(C)C)c(O)c3c(=O)c2c1CC=C(C)C [AM-009]
- MIC99 S. aureus [2]: >200 µg/mL
- SYTOX green staining of bacteria (fluorescence microscopy) [5]: no significant staining
- Membrane permeabilization (SYTOX green fluorescence emission) [5]: not able to trigger the membrane permeabilization
- HC50 [14]: >200 µg/mL
- Hemolytic concentration, HC50 [14]: >1000 µg/mL
- Minimum inhibition concentration (MIC) [6]: >25 µg/mL
- Minimum inhibition concentration (MIC) [7]: >25 µg/mL
- MIC99 MRSA [8]: >200 µg/mL
- MIC100 [15]: 8 µM
- MIC100 ([15]; value in brackets): 5.54 µg/mL

Structure (SMILES): CCN(CC)CCCCCCCCOc1cc2oc3cc(OCCCCCCCCN(CC)CC)c(OC)c(CC=C(C)C)c3c(=O)c2c(O)c1CC=C(C)C [AM-043]
- Membrane permeabilization (SYTOX green fluorescence emission) [5]: weaker membrane permeabilization effect

Structure (SMILES): CC(C)=CCc1c(O)cc2oc3cc(O)c(O)c(CC=C(C)C)c3c(=O)c2c1O [AM-013, Gamma-mangostin, reference compound]
- MIC100 [15]: 125 µM
- MIC100 ([15]; value in brackets): 49.55 µg/mL

Structure (SMILES): CN[C@H](CC(C)C)C(=O)N[C@H]1C(=O)N[C@@H](CC(N)=O)C(=O)N[C@H]2C(=O)N[C@H]3C(=O)N[C@H](C(=O)N[C@H](C(=O)O)c4cc(O)cc(O)c4-c4cc3ccc4O)[C@H](O)c3ccc(c(Cl)c3)Oc3cc2cc(c3O[C@@H]2O[C@H](CO)[C@@H](O)[C@H](O)[C@H]2O[C@H]2C[C@](C)(N)[C@H](O)[C@H](C)O2)Oc2ccc(cc2Cl)[C@H]1O [Vancomycin, reference compound]
- MIC ([11]; MRSA): 0.78 µg/mL (≈ 0.538 µM)
- MIC ([12]; MRSA): 0.78 µg/mL (≈ 0.538 µM)
- MIC ([6]; MRSA): 0.78 µg/mL (≈ 0.538 µM)
- Minimum inhibitory concentration [16]: Above 100
- Minimum inhibitory concentration [17]: 1.56
- Minimum inhibitory concentration ([13]; S. aureus ATCC 700699 (VISA), no unit in table (Example 10 MICs in μg/ml)): 6.25
- MIC [13]: 6.25 µg/mL (≈ 4.31 µM)
- Minimum inhibitory concentration [18]: 50
- Minimum inhibitory concentration [19]: 1.56
- Development of drug resistance [20]: develops drug resistance more quickly
- MIC ([10]; MRSA): 0.395 µg/mL (≈ 0.273 µM)

Structure (SMILES): COc1c(OCC(=O)O)cc2oc3cc(O)c(CC=C(C)C)c(O)c3c(=O)c2c1CC=C(C)C [AM-072]
- Minimum inhibition concentration (MIC) [21]: 6.25 µg/mL (≈ 13.3 µM)
- MIC [21]: 13.34 µM (≈ 6.25 µg/mL)
- Minimum inhibition concentration (MIC) [6]: 6.25 µg/mL (≈ 13.3 µM)
- Minimum inhibition concentration (MIC) [7]: 6.25 µg/mL (≈ 13.3 µM)
- MIC [7]: 13.34 µM (≈ 6.25 µg/mL)
- Minimum inhibition concentration (MIC) [22]: 6.25 µg/mL (≈ 13.3 µM)
- MIC [22]: 13.34
- MIC100 [15]: 250 µM

Structure (SMILES): COc1c(O)cc2oc3cc(O)c(CC=C(C)C)c(O)c3c(=O)c2c1CC=C(C)C [AM-000, alpha-mangostin, reference compound]
- MIC99 S. aureus [2]: 1.56 µg/mL (≈ 3.8 µM)
- HC50 [14]: 9 µg/mL
- Hemolytic concentration, HC50 [14]: 6.5 µg/mL
- MIC99 MRSA [8]: 1.56 µg/mL (≈ 3.8 µM)

Structure (SMILES): CC[C@@H](CO)NCCN[C@@H](CC)CO [Ethambutol]
- MIC [23]: 20 µM (≈ 4.09 µg/mL)

Structure (SMILES): COC(=O)C(CCCNC(=N)N)NC(=O)COc1cc2oc3cc(OCC(=O)NC(CCCNC(=N)N)C(=O)OC)c(OC)c(CC=C(C)C)c3c(=O)c2c(O)c1CC=C(C)C (stereo not drawn) [AM-052]
- HC50 [1]: 238 µg/mL
- Solubility [24]: not soluble
- MIC99 [25]: 6.25 µg/mL (≈ 7.21 µM)
- MIC99 [21]: 3.125 µg/mL (≈ 3.6 µM)
- MIC99 ([6]; Methicillin-resistant S. aureus DM21455, Source: Eye): 1.56 µg/mL (≈ 1.8 µM)
- MIC99 [7]: 6.25 µg/mL (≈ 7.21 µM)
- pH ([26]; Saline, 50 μg/ml compound): 5.33 ± 0.05
- pH ([26]; Saline, 100 μg/ml compound): 5.33 ± 0.01
- pH ([26]; Water, 50 μg/ml compound): 6.52 ± 0.29
- pH ([26]; Water, 100 μg/ml compound): 7.66 ± 0.33
- MIC99 [9]: 12.5 µg/mL (≈ 14.4 µM)
- MIC99 ([10]; Methicillin-resistant S. aureus DM09808R): 3.125 µg/mL (≈ 3.6 µM)

Structure (SMILES): COc1c(O)cc2oc3cc(OCC(=O)O)c(CC=C(C)C)c(O)c3c(=O)c2c1CC=C(C)C [AM-071]
- Hemolytic concentration, HC50 [14]: 37.5 µg/mL
- Minimum inhibition concentration (MIC) [21]: 6.25 µg/mL (≈ 13.3 µM)
- MIC [21]: 13.34 µM (≈ 6.25 µg/mL)
- Minimum inhibition concentration (MIC) [6]: 25 µg/mL (≈ 53.4 µM)
- Minimum inhibition concentration (MIC) [7]: 12.5 µg/mL (≈ 26.7 µM)
- MIC [7]: 26.68 µM (≈ 12.5 µg/mL)
- Minimum inhibition concentration (MIC) [22]: 25 µg/mL (≈ 53.4 µM)
- MIC [22]: 53.36
- MIC100 [15]: 250 µM
